According to US20090325964A1, “Piperazine Metabotropic Glutamate Receptor 5 (MGLUR5) Negative Allosteric Modulators For Anxiety/Depression” (Wyeth, priority 2008, published 2009):
Read-outs that look alike come from different tables or passages of the source.

Target: T1, rat mGluR5 receptor (Rattus norvegicus, UniProt P31424)
T1 construct: expressed in transfected cells; host or cells: HEK-293
Assay: [3H]-MPEP displacement binding assay, HEK-293 cell membranes expressing rat mGluR5
Conditions: for Ki: read-out: Median Ki; for inhibition at 10 µM: 1 h, single point, @ 10 μm compound, Table 1A, read-out: PCT INHIB (%) @ 10 μm
Description: MGluR5 expressing HEK-293 cells were scraped off a plate, transferred to centrifuge tubes and washed twice by centrifugation (2000 rpm for 10 minutes, at 4° C.) in buffer (50 mM Tris pH 7.5). The resulting pellets were aliquoted and stored at minus 80° C. On the day of assay, the cells were thawed on ice and re-suspended in buffer. The binding assay was performed in a 96 well microtiter plate in a total volume of […]. Non-specific binding was determined in the presence of 10 μM MPEP. The binding reaction included a final radioligand [^3H]-MPEP concentration of 4 nM and 12-25 μg membrane protein per well. Following a 60 minute incubation at room temperature, the reaction was terminated by the addition of ice cold buffer and rapid filtration through a GF/B filter that had been presoaked for 30 minutes in 0.5% PEI. Compounds were initially tested in a single point assay to determine percent inhibition at 10 μM.
Percent inhibition and Ki values were generated by GraphPad Prism and Excel Fit. IC50 values were calculated using GraphPad by fitting to a 1 or 2 site-binding model.
where [L] is the concentration of free radioligand and Kd is the dissociation constant of radioligand for the receptor.

[1] = [3H]-MPEP displacement, rat mGluR5

T1 sequence (P31424 21-1203): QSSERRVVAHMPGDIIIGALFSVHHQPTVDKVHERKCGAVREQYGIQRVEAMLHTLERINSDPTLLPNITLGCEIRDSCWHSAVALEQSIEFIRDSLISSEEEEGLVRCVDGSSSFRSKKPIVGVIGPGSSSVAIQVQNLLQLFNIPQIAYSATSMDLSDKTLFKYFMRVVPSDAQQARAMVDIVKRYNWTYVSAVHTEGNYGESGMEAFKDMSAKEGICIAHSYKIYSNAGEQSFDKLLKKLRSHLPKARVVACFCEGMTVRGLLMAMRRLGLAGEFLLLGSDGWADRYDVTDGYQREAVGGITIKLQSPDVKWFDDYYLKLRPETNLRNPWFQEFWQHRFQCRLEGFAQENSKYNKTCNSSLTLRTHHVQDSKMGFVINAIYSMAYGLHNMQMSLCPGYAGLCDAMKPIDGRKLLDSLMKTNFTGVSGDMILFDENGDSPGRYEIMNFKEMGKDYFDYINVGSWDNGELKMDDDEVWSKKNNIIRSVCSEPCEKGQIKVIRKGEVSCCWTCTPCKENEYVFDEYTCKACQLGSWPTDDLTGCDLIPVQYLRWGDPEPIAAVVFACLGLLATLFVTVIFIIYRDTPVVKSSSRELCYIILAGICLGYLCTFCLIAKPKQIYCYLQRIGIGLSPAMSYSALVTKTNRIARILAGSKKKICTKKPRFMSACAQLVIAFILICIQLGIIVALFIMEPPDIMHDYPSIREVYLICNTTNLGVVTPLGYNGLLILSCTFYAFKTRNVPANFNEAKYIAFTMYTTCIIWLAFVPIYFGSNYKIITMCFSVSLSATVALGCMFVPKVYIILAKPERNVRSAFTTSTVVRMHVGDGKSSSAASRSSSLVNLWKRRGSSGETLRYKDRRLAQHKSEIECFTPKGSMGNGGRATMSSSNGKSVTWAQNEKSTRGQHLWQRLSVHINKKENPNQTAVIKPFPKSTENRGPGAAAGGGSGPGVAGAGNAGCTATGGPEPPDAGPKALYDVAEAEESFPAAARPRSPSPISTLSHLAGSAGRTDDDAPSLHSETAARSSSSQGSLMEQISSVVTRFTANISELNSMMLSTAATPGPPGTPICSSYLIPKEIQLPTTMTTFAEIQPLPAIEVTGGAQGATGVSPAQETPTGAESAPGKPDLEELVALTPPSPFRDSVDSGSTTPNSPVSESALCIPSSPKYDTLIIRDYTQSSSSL

| inhibition at 10 µM [%] | Ki [nM] | Compound | Ki [1] [nM] | Ki ([3H]-MPEP displacement, rat mGluR5 membranes) [nM] |
| --- | --- | --- | --- | --- |
| 0 | – | COc1ccc(C(=O)N2CCN(c3ccccn3)CC2)cc1C#Cc1cc(C)c(C)cc1C [Compound 23, 1-{4-methoxy-3-[(2,4,5-trimethylphenyl)ethynyl]benzoyl}-4-pyridin-2-ylpiperazine] | – | – |
| 71 | 1290 | Cc1ccc(C(=O)N2CCN(c3ccccn3)CC2)cc1C#CC1=CCCCC1 [Compound 24, 1-[3-(cyclohex-1-en-1-ylethynyl)-4-methylbenzoyl]-4-pyridin-2-ylpiperazine] | – | – |
| 63 | 452 | Cc1ccc(C(=O)N2CCN(c3ccccn3)CC2)cc1C#CCc1ccccc1 [Compound 25, 1-[4-methyl-3-(3-phenylprop-1-yn-1-yl)benzoyl]-4-pyridin-2-ylpiperazine] | – | – |
| 86 | 322 | COc1cccc(C#Cc2cc(C(=O)N3CCN(c4ccccn4)CC3)ccc2C)c1 [Compound 26, 1-{3-[(3-methoxyphenyl)ethynyl]-4-methylbenzoyl}-4-pyridin-2-ylpiperazine] | – | – |
| 81 | 469 | Cc1ccc(C(=O)N2CCN(c3ccccn3)CC2)cc1C#Cc1cccc(C(F)(F)F)c1 [Compound 27, 1-(4-methyl-3-{[3-(trifluoromethyl)phenyl]ethynyl}benzoyl)-4-pyridin-2-ylpiperazine] | – | – |
| 79 | 76 | Cc1ccc(C(=O)N2CCN(c3ccccn3)CC2)cc1C#Cc1cccc(Cl)c1 [Compound 28, 1-{3-[(3-chlorophenyl)ethynyl]-4-methylbenzoyl}-4-pyridin-2-ylpiperazine] | – | – |
| 41 | – | Cc1ccc(C(=O)N2CCN(c3ccccn3)CC2)cc1C#Cc1cc(F)cc(F)c1 [Compound 29, 1-{3-[(3,5-difluorophenyl)ethynyl]-4-methylbenzoyl}-4-pyridin-2-ylpiperazine] | – | – |
| 55 | 3810 | Cc1ccc(C)c(C#Cc2cc(C(=O)N3CCN(c4ccccn4)CC3)ccc2C)c1 [Compound 30, 1-{3-[(2,5-dimethylphenyl)ethynyl]-4-methylbenzoyl}-4-pyridin-2-ylpiperazine] | – | – |
| 68 | 472 | Cc1cc(C#Cc2cc(C(=O)N3CCN(c4ccccn4)CC3)ccc2C)ccc1F [Compound 31, 1-{3-[(4-fluoro-3-methylphenyl)ethynyl]-4-methylbenzoyl}-4-pyridin-2-ylpiperazine] | – | – |
| 68 | 3110 | Cc1ccc(C(=O)N2CCN(c3ccccn3)CC2)cc1C#Cc1cccnc1 [Compound 32, 1-[4-methyl-3-(pyridin-3-ylethynyl)benzoyl]-4-pyridin-2-ylpiperazine] | – | – |
| 82 | 541 | COc1ccc(C(=O)N2CCN(c3ccccn3)CC2)cc1C#Cc1cccc(O)c1 [Compound 33, 3-({2-methoxy-5-[(4-pyridin-2-ylpiperazin-1-yl)carbonyl]phenyl}ethynyl)phenol] | – | – |
| 62 | 299 | COc1ccc(C(=O)N2CCN(c3ccccn3)CC2)cc1C#Cc1cccc(N)c1 [Compound 34, 3-({2-methoxy-5-[(4-pyridin-2-ylpiperazin-1-yl)carbonyl]phenyl}ethynyl)aniline] | – | – |
| 67 | 898 | COc1ccc(C(=O)N2CCN(c3ccccn3)CC2)cc1C#Cc1cccnc1 [Compound 35, 1-[4-methoxy-3-(pyridin-3-ylethynyl)benzoyl]-4-pyridin-2-ylpiperazine] | – | – |

Further lines, the compound ahead of its results:

| Compound | inhibition at 10 µM [%] | Ki [nM] | Ki [1] [nM] | Ki ([3H]-MPEP displacement, rat mGluR5 membranes) [nM] |
| --- | --- | --- | --- | --- |
| 1-(2-chlorobenzyl)-4-[4-methoxy-3-(pyridin-2-ylethynyl)benzoyl]piperazin-2-one [Compound 332] | – | – | 32 | – |
| 1-(3-chlorobenzyl)-4-[4-methoxy-3-(pyridin-2-ylethynyl)benzoyl]piperazin-2-one [Compound 333] | – | – | 34 | – |
| 1-(3-chloropyridin-2-yl)-4-{4-methoxy-3-[(3-nitrophenyl)ethynyl]benzoyl}piperazine [Compound 345] | – | – | 3210 | – |
| 1-(4-chlorobenzyl)-4-[4-methoxy-3-(pyridin-2-ylethynyl)benzoyl]piperazin-2-one [Compound 334] | – | – | 54 | – |
| 1-(4-methylpyridin-2-yl)-4-{[3-(pyridin-2-ylethynyl)-4-(trifluoromethyl)phenyl]carbonyl}piperazine [Compound 367] | – | – | – | 8 |
| 2-{4-[4-methoxy-3-(pyridin-2-ylethynyl)benzoyl]piperazin-1-yl}-1,3-benzothiazole [Compound 256] | – | – | 43 | – |
| Cc1ccc(C#Cc2cccc(C(=O)N3CCN(c4ccccn4)CC3)c2)cc1 [Compound 1, 1-{3-[(4-methylphenyl)ethynyl]benzoyl}-4-pyridin-2-ylpiperazine] | 55 | – | – | – |
| O=C(c1cccc(C#Cc2ccc(Cl)cc2)c1)N1CCN(c2ccccn2)CC1 [Compound 3, 1-{3-[(4-chlorophenyl)ethynyl]benzoyl}-4-pyridin-2-ylpiperazine] | 45 | – | – | – |
| Cc1ccccc1C#Cc1cccc(C(=O)N2CCN(c3ccccn3)CC2)c1 [Compound 4, 1-{3-[(2-methylphenyl)ethynyl]benzoyl}-4-pyridin-2-ylpiperazine] | 0 | – | – | – |
| O=C(c1cccc(C#Cc2ccccc2C(F)(F)F)c1)N1CCN(c2ccccn2)CC1 [Compound 5, 1-pyridin-2-yl-4-(3-{[2-(trifluoromethyl)phenyl]ethynyl}benzoyl)piperazine] | 0 | – | – | – |
| O=C(c1cccc(C#Cc2cccc(O)c2)c1)N1CCN(c2ccccn2)CC1 [Compound 6, 3-({3-[(4-pyridin-2-ylpiperazin-1-yl)carbonyl]phenyl}ethynyl)phenol] | 75 | 1120 | – | – |
| Cn1cncc1C#Cc1cccc(C(=O)N2CCN(c3ccccn3)CC2)c1 [Compound 7, 1-{3-[(1-methyl-1H-imidazol-5-yl)ethynyl]benzoyl}-4-pyridin-2-ylpiperazine] | 0 | – | – | – |
| O=C(c1cccc(C#CC2=CCCCC2)c1)N1CCN(c2ccccn2)CC1 [Compound 8, 1-[3-(cyclohex-1-en-1-ylethynyl)benzoyl]-4-pyridin-2-ylpiperazine] | 78 | 1220 | – | – |
| O=C(c1cccc(C#CC2(O)CCCC2)c1)N1CCN(c2ccccn2)CC1 [Compound 9, 1-({3-[(4-pyridin-2-ylpiperazin-1-yl)carbonyl]phenyl}ethynyl)cyclopentanol] | 0 | – | – | – |
| Nc1cccc(C#Cc2cccc(C(=O)N3CCN(c4ccccn4)CC3)c2)c1 [Compound 11, 3-({3-[(4-pyridin-2-ylpiperazin-1-yl)carbonyl]phenyl}ethynyl)aniline] | 85 | – | – | – |
| O=C(c1cccc(C#CC2(O)CCCCC2)c1)N1CCN(c2ccccn2)CC1 [Compound 12, 1-({3-[(4-pyridin-2-ylpiperazin-1-yl)carbonyl]phenyl}ethynyl)cyclohexanol] | 0 | – | – | – |
| O=C(c1cccc(C#CC(O)c2ccccc2)c1)N1CCN(c2ccccn2)CC1 (stereo not drawn) [Compound 13, 1-phenyl-3-{3-[(4-pyridin-2-ylpiperazin-1-yl)carbonyl]phenyl}prop-2-yn-1-ol] | 15 | – | – | – |
| COc1ccc(C(=O)N2CCN(c3ccccn3)CC2)cc1C#CC1=CCCCC1 [Compound 15, 1-[3-(cyclohex-1-en-1-ylethynyl)-4-methoxybenzoyl]-4-pyridin-2-ylpiperazine] | 76 | 236 | – | – |
| COc1ccc(C(=O)N2CCN(c3ccccn3)CC2)cc1C#CCc1ccccc1 [Compound 16, 1-[4-methoxy-3-(3-phenylprop-1-yn-1-yl)benzoyl]-4-pyridin-2-ylpiperazine] | 84 | 43 | – | – |
| COc1cccc(C#Cc2cc(C(=O)N3CCN(c4ccccn4)CC3)ccc2OC)c1 [Compound 17, 1-{4-methoxy-3-[(3-methoxyphenyl)ethynyl]benzoyl}-4-pyridin-2-ylpiperazine] | 91 | 51 | – | – |
| COc1ccc(C(=O)N2CCN(c3ccccn3)CC2)cc1C#Cc1cccc(C)c1 [Compound 18, 1-{4-methoxy-3-[(3-methylphenyl)ethynyl]benzoyl}-4-pyridin-2-ylpiperazine] | 99 | 6 | – | – |
| COc1ccc(C(=O)N2CCN(c3ccccn3)CC2)cc1C#Cc1cccc(Cl)c1 [Compound 19, 1-{3-[(3-chlorophenyl)ethynyl]-4-methoxybenzoyl}-4-pyridin-2-ylpiperazine] | 97 | 6 | – | – |
| COc1cc(C#Cc2cc(C(=O)N3CCN(c4ccccn4)CC3)ccc2OC)cc(OC)c1 [Compound 20, 1-{3-[(3,5-dimethoxyphenyl)ethynyl]-4-methoxybenzoyl}-4-pyridin-2-ylpiperazine] | 0 | – | – | – |
| COc1ccc(C(=O)N2CCN(c3ccccn3)CC2)cc1C#Cc1cc(F)cc(F)c1 [Compound 21, 1-{3-[(3,5-difluorophenyl)ethynyl]-4-methoxybenzoyl}-4-pyridin-2-ylpiperazine] | 79 | 1940 | – | – |
| COc1ccc(C(=O)N2CCN(c3ccccn3)CC2)cc1C#Cc1cc(C)ccc1C [Compound 22, 1-{3-[(2,5-dimethylphenyl)ethynyl]-4-methoxybenzoyl}-4-pyridin-2-ylpiperazine] | 43 | – | – | – |
